Source: patent publication US20220168427A1 (Ranok Therapeutics (Hangzhou) Co. Ltd., priority 2019, published 2022)

How the values were obtained:
HSP90α = HSP90α (Homo sapiens, UniProt P07900); test: HSP90α Binding Fluorescent Polarization (FP) Assay; conditions: competition with FITC-geldanamycin; read-out: HSP90 Binding Potency
Method in brief: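 Competitive FP assay in which compound displaces FITC-geldanamycin from recombinant HSP90α (28 μg/ml before addition) in BSA-containing buffer. Compounds in 3-fold series from 40 μM to 2.0 nM (dilution-plate concentrations), tested in duplicate. Readings after 30, 60 and 120 min at 25 °C; background-subtracted mP fitted to four-parameter log[inhibitor]-response curve.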

BRD4 (BD1+BD2) = target: T1, BRD4 (BD1+BD2) (Homo sapiens, UniProt O60885); conditions: read-out: BRD4 Binding Potency
T1 construct: 1.8 μg/ml recombinant BRD4 (BD1+BD2 domains) protein

BRD4 = target: T2, BRD4 (Homo sapiens, UniProt O60885); test: BRD4 Degradation Flow Cytometry Assay in MV4-11 cells; type: cell-based; conditions: 24 hr
T2 construct: endogenous in cells; host or cells: MV4-11
Method: Protein Degradation Flow Cytometry
MV4-11 cells were plated in a 24-well tissue culture plate at a density of 350,000 cells/450 μL/well and incubated in 37° C./5% CO2 for 1 hr. Cells were then treated with compounds at various concentrations and incubated in 37° C./5% CO2 for 24 hr. Cells were harvested, washed once, counted and 200 μL of 1% paraformaldehyde/PBS was added and incubated for 15 min at room temperature. 200 μL of 1×PBS/0.4% Triton X-100 was added and incubated for 15 min at 4° C. Cells were washed three times and resuspended in 50 μL of 1×PBS/0.2% Triton X-100. 2 μL/10^6 cells of anti-BRD4 antibody (ABCAM, #128874) was added and mixed by pipetting up and down. Cells were incubated for 30 min at room temperature in the dark, washed three times and resuspended in 50 μL of 1×PBS/0.2% Triton X-100. Goat anti-rabbit IgG H&L antibody (1:2000 dilution) was added and mixed by pipetting up and down and incubated for 30 min at room temperature in the dark. Finally, cells were washed three times and resuspended in 200 μL of PBS for flow cytometric analysis.
(§1) % Inhibition=100−(D−B)/(S−B)*100%.
S: The fluorescence intensity of MV4-11 with antibody
D: The fluorescence intensity in the presence of different compound dilutions with antibody
B: The fluorescence intensity of MV4-11 only

MV4-11 cells = test: MV4-11 Cell Cytotoxicity Assay; type: cell-based, human; conditions: human, MV4-11 cells, CCK-8
Text: as §1
S: The absorbance of the maximum (cells with DMSO)
B: The absorbance of the minimum (medium with DMSO)

MV4-11 xenograft = test: MV4-11 AML tumor xenograft study in mice
Method: (§2) Tumor Xenograft Studies in Mice
MV4-11 acute myeloid leukemia and SU-DHL-4 diffuse large B-cell lymphoma (ATCC, #CRL-2957) cells were cultured in medium supplemented with 10% fetal bovine serum at 37° C./5% CO2. 5×10^6 MV-4-11 or 1×10^7 SU-DHL-4 cells were collected and re-suspended in 0.1 mL of serum-free media with Matrigel (1:1 v/v) per mouse for subcutaneous inoculation in isoflurane anesthetized male BALB/c nude or C.B-17 scid mice, respectively (treated in accordance with AAALAC animal welfare guidelines). When the average tumor volumes reached 100-200 mm^3, tumor volume outliers were removed and the remaining animals randomly divided into groups of 6-8 with similar average tumor volumes in each group. […] […] The appearance and behavior of each mouse was observed and recorded daily. Body weights and tumor volumes were measured and recorded every 2-4 days and the results were expressed as group means±SEM. Pairwise statistical comparisons between groups were performed by one-way ANOVA, and p<0.05 was considered statistically significant.

SU-DHL-4 xenograft = test: SU-DHL-4 DLBCL tumor xenograft study in mice
Method: as §2
5×10^6 MV-4-11 or 1×10^7 SU-DHL-4 cells were collected and re-suspended in 0.1 mL of serum-free media with Matrigel (1:1 v/v) per mouse for subcutaneous inoculation in isoflurane anesthetized male BALB/c nude or C.B-17 scid mice, respectively (treated in accordance with AAALAC animal welfare guidelines). When the average tumor volumes reached 100-200 mm^3, tumor volume outliers were removed and the remaining animals randomly divided into groups of 6-8 with similar average tumor volumes in each group. […] Animals were intravenously dosed at 25 mg/kg, 50 mg/kg or 100 mg/kg 1×/week for 3 or 4 weeks. The appearance and behavior of each mouse was observed and recorded daily. Body weights and tumor volumes were measured and recorded every 2-4 days and the results were expressed as group means±SEM. Pairwise statistical comparisons between groups were performed by one-way ANOVA, and p<0.05 was considered statistically significant.

[1] = 100 mg/kg intravenously 1×/week, after 4 weeks of dosing

| Molecule | IC50 (HSP90α) | IC50 (BRD4 (BD1+BD2)) | BRD4 degradation in flow cytometry assay, in words (BRD4) | IC50 at 72 h (MV4-11 cells) | further results |
| --- | --- | --- | --- | --- | --- |
| Cc1sc2c(c1C)C(c1ccc(Cl)cc1)=N[C@H](CC(=O)N1CCC(CN3CCN(Cc4ccc(-n5c(O)nnc5-c5cc(C(C)C)c(O)cc5O)cc4)CC3)CC1)c1nnc(C)n1-2 [Compound 5, 2-((6R)-4-(4-chlorophenyl)-2,3,9-trimethyl-6H-thieno[3,2-f][1,2,4]triazolo[4,3-a][1,4]diazepin-6-yl)-1-(4-((4-(4-(3-(2,4-dihydroxy-5-isopropylphenyl)-5-hydroxy-4H-1,2,4-triazol-4-yl)benzyl)piperazin-1-yl)methyl)piperidin-1-yl)ethanone, trifluoroacetic acid] | 100 to 1000 nM | > 1000 nM | does not degrade BRD4 | – | – |
| Cc1sc2c(c1C)C(c1ccc(Cl)cc1)=N[C@@H](CC(=O)NCC(=O)NCC1CCN(C(=O)C3CCN(Cc4ccc(-n5c(O)nnc5-c5cc(C(C)C)c(O)cc5O)cc4)CC3)C1)c1nnc(C)n1-2 (stereo partly drawn) [Compound 47, 2-((S)-4-(4-chlorophenyl)-2,3,9-trimethyl-6H-thieno[3,2-f][1,2,4]triazolo[4,3-a][1,4]diazepin-6-yl)-N-(2-(((1-(1-(4-(3-(2,4-dihydroxy-5-isopropylphenyl)-5-hydroxy-4H-1,2,4-triazol-4-yl)benzyl)piperidine-4-carbonyl)pyrrolidin-3-yl)methyl)amino)-2-oxoethyl)acetamide, trifluoroacetic acid] | < 100 nM | < 100 nM | – | < 100 nM | degradation of BRD2, BRD3 and BRD4, in words (BRD4; flow cytometry): only induced significant degradation of BRD4 |
| (+)-JQ1 [reference compound] | – | – | no substantial BRD4 degradation was observed | – | tumor growth inhibition (MV4-11 xenograft; 25 mg/kg intraperitoneal dosing 1×/day): moderate tumor growth inhibition; animal deaths and body weights (MV4-11 xenograft; any group): No animal deaths or significant effects on body weights were observed |
| CC(=O)N1CCC(CN2CCN(Cc3ccc(-n4c(O)nnc4-c4cc(C(C)C)c(O)cc4O)cc3)CC2)CC1 [HSP90 binder, 1-(4-((4-(4-(3-(2,4-dihydroxy-5-isopropylphenyl)-5-hydroxy-4H-1,2,4-triazol-4-yl)benzyl)piperazin-1-yl)methyl)piperidin-1-yl)ethan-1-one, reference compound] | – | – | no substantial BRD4 degradation was observed | – | – |
| CCc1cc(-c2nnc(C(=O)NCC(F)(F)F)n2-c2ccc(CN3CCN(CC4CCN(C(=O)C[C@@H]5N=C(c6ccc(Cl)cc6)c6c(sc(C)c6C)-n6c(C)nnc65)CC4)CC3)cc2)c(O)cc1O.Cl [Compound 78, 4-(4-((4-((1-(2-((6S)-4-(4-chlorophenyl)-2,3,9-trimethyl-6H-thieno[3,2-f][1,2,4]triazolo[4,3-a][1,4]diazepin-6-yl)acetyl)piperidin-4-yl)methyl)piperazin-1-yl)methyl)phenyl)-5-(5-ethyl-2,4-dihydroxyphenyl)-N-(2,2,2-trifluoroethyl)-4H-1,2,4-triazole-3-carboxamide hydrochloride] | 100 to 1000 nM | 100 to 1000 nM | – | – | tumor growth inhibition (SU-DHL-4 xenograft; [1]): significant tumor growth inhibition; tumor vs control (T/C) value (SU-DHL-4 xenograft; [1]): 28%; animal deaths and body weights (SU-DHL-4 xenograft; any dose level): No animal deaths or significant effects on body weights were observed |
| Cc1sc2c(c1C)C(c1ccc(Cl)cc1)=N[C@@H](CC(=O)NCCc1ccc(-n3c(O)nnc3-c3cc(C(C)C)c(O)cc3O)cc1)c1nnc(C)n1-2 [Compound 39, 2-((6S)-4-(4-chlorophenyl)-2,3,9-trimethyl-6H-thieno[3,2-f][1,2,4]triazolo[4,3-a][1,4]diazepin-6-yl)-N-(4-(3-(2,4-dihydroxy-5-isopropylphenyl)-5-hydroxy-4H-1,2,4-triazol-4-yl)phenethyl)acetamide] | 100 to 1000 nM | 100 to 1000 nM | – | < 100 nM | – |
| Cc1sc2c(c1C)C(c1ccc(Cl)cc1)=N[C@@H](CC(=O)N1CCC(CN3CCN(Cc4ccc(-n5c(C(N)=O)nnc5-c5ccc(O)cc5O)cc4)CC3)CC1)c1nnc(C)n1-2 [Compound 112, (S)-4-(4-((4-((1-(2-(4-(4-chlorophenyl)-2,3,9-trimethyl-6H-thieno[3,2-f][1,2,4]triazolo[4,3-a][1,4]diazepin-6-yl)acetyl)piperidin-4-yl)methyl)piperazin-1-yl)methyl)phenyl)-5-(2,4-dihydroxyphenyl)-4H-1,2,4-triazole-3-carboxamide, trifluoroacetic acid] | 100 to 1000 nM | < 100 nM | – | < 100 nM | – |
